Tests used:
[1] = Inhibition of MurA (unknown origin) preincubated for 30 mins followed by substrate addition and measured after 8 mins by spectrometric analysis; design: species or system Bacteria
[2] = molecular target: T1, Tyrosine-protein phosphatase non-receptor type 5 (Homo sapiens) (UniProt P54829); experiment: Inhibition of PTPN5 (unknown origin) using pNPP as substrate assessed as fraction of control at 100 uM by high-throughput screening assay relative to control
T1 sequence (whole entry): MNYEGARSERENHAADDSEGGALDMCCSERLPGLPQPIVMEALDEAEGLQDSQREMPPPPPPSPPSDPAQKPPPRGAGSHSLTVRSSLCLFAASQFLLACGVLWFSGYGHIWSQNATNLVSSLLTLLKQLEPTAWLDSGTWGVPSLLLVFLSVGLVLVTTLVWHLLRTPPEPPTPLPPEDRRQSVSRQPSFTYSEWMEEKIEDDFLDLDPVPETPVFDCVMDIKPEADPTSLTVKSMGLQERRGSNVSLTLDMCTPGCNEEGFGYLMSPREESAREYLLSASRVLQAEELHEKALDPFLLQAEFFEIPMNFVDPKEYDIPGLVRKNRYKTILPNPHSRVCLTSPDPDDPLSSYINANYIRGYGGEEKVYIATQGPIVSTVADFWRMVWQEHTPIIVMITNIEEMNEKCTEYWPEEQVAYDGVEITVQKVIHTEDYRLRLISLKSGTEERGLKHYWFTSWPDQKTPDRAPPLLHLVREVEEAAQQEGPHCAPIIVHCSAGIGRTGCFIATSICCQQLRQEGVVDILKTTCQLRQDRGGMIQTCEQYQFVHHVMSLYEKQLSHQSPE

[3] = molecular target: T2, Tyrosine-protein phosphatase non-receptor type 1 (Homo sapiens) (UniProt P18031); experiment: Inhibition of PTP1B (unknown origin) using pNPP as substrate assessed as fraction of control at 100 uM by high-throughput screening assay relative to control
T2 sequence (whole entry): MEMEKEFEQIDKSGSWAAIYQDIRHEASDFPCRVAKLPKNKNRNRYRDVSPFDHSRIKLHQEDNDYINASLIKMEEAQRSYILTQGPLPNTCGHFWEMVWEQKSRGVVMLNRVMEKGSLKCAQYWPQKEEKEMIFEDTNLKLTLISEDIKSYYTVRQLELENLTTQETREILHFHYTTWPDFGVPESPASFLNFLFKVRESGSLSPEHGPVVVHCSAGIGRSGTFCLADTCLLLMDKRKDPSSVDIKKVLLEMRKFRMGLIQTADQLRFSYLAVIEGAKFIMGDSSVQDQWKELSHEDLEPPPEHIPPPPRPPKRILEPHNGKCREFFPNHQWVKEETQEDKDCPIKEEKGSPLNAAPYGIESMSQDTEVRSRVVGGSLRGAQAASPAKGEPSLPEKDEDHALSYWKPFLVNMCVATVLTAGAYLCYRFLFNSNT

[4] = molecular target: T3, Tyrosine-protein phosphatase non-receptor type 7 (Homo sapiens) (UniProt P35236); experiment: Inhibition of PTPN7 (unknown origin) using pNPP as substrate assessed as fraction of control at 100 uM by high-throughput screening assay relative to control
T3 sequence (whole entry): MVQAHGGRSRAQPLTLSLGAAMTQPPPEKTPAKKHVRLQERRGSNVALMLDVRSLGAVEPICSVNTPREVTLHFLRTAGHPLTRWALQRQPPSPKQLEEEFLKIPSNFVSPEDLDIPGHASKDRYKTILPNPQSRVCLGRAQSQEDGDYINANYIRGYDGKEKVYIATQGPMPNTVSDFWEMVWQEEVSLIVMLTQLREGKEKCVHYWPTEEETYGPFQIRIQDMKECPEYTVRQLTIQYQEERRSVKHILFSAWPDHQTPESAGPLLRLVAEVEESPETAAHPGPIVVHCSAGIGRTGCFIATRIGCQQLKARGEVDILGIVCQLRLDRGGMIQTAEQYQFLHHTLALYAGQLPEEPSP

[5] = molecular target: T4, Receptor-type tyrosine-protein phosphatase R (Homo sapiens) (UniProt Q15256); experiment: Inhibition of PTPRR (unknown origin) using pNPP as substrate assessed as fraction of control at 100 uM by high-throughput screening assay relative to control
T4 sequence (whole entry): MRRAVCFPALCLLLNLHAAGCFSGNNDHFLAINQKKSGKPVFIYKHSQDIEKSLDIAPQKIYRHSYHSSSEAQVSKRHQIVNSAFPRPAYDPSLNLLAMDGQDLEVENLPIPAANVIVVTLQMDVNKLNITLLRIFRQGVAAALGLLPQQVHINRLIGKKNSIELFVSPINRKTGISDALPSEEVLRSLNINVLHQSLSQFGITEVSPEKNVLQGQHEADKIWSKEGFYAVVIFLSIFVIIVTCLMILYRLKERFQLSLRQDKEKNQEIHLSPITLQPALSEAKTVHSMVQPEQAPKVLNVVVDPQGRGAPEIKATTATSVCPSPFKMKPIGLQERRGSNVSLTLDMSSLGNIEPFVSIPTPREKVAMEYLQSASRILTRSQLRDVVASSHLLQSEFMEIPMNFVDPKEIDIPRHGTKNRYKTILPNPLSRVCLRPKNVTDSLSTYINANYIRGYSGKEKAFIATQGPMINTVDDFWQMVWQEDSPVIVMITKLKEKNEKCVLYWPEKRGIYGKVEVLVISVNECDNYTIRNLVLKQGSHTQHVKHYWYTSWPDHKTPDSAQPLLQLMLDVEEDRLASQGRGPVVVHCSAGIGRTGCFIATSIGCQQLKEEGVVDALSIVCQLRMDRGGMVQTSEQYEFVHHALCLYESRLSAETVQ

[6] = molecular target: T5, M-phase inducer phosphatase 2 (Homo sapiens, UniProt P30305); experiment: Inhibition of full-length 6His/GST-tagged recombinant human CDC25B using OMFP as substrate incubated for 60 mins by fluorescence based analysis
T5 sequence (P30305 whole entry): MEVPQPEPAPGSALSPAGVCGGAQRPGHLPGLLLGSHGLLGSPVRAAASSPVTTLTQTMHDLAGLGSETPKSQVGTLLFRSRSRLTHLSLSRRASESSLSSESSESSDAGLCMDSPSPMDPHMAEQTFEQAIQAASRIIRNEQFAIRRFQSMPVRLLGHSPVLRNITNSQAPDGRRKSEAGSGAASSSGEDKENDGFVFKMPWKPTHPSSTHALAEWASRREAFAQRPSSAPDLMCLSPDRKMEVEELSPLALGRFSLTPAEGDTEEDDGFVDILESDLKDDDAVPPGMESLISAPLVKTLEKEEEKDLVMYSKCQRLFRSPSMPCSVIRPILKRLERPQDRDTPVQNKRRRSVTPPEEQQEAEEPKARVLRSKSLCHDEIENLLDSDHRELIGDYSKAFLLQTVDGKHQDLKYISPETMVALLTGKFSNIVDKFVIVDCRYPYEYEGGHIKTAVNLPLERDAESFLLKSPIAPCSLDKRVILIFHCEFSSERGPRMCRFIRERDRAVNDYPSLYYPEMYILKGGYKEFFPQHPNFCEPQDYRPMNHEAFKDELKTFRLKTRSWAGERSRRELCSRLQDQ

[7] = molecular target: SH3 and multiple ankyrin repeat domains protein 3 (Mus musculus, UniProt Q4ACU6); experiment: Binding affinity to His-tagged murine Shank3 PDZ domain assessed as inhibition constant by fluorescence polarization assay
Sequence of SH3 and multiple ankyrin repeat domains protein 3 (Q4ACU6 whole entry, the tested form may be a part): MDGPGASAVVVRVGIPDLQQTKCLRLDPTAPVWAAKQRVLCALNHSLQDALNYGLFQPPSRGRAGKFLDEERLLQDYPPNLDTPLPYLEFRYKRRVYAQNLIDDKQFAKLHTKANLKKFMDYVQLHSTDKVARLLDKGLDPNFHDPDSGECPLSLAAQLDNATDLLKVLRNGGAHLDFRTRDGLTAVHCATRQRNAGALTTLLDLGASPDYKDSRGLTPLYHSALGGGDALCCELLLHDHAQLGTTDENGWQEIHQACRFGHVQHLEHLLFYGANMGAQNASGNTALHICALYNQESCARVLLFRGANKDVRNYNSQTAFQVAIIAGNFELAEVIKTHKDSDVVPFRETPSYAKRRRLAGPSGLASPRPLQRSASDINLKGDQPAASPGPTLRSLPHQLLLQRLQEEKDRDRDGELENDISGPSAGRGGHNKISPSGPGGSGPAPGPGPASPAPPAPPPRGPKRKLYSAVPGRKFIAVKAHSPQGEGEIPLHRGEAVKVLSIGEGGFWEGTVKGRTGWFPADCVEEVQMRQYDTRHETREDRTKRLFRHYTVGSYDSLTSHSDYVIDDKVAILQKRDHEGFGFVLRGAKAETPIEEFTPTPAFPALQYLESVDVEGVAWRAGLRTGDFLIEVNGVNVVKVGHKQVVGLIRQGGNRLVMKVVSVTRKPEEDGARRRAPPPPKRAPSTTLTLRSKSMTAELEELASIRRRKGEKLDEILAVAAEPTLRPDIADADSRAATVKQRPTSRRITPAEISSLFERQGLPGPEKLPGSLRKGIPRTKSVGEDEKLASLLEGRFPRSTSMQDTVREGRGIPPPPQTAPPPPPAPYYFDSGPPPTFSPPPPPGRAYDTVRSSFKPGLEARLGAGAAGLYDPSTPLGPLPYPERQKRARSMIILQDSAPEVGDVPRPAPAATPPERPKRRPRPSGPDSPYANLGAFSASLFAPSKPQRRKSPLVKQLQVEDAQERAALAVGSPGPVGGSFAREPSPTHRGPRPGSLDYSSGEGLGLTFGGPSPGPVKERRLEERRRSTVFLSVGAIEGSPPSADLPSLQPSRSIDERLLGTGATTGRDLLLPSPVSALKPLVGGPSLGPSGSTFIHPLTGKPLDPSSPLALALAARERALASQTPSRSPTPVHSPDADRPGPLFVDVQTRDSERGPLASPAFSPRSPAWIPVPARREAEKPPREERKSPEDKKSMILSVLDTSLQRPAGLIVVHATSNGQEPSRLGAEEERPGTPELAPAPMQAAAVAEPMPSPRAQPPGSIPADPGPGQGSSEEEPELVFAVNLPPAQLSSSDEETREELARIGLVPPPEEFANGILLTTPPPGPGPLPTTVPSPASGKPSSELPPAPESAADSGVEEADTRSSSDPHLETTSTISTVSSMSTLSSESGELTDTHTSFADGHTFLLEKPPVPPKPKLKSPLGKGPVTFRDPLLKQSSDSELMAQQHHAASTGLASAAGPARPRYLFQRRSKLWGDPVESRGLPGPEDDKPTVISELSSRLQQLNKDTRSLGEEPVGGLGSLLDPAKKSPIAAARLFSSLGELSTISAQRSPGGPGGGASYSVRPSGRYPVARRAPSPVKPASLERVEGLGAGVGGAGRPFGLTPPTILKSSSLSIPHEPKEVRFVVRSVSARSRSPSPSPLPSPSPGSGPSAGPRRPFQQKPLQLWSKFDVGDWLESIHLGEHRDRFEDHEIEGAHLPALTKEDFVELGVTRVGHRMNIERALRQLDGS

[8] = molecular target: Diacylglycerol kinase alpha (Sus scrofa, UniProt P20192); experiment: Inhibition of GST-fused pig DGK alpha expressed in Sf9 insect cells incubated for 2 hrs by HTS ADP-Glo DGK assay
Sequence of Diacylglycerol kinase alpha (P20192 whole entry, the tested form may be a part): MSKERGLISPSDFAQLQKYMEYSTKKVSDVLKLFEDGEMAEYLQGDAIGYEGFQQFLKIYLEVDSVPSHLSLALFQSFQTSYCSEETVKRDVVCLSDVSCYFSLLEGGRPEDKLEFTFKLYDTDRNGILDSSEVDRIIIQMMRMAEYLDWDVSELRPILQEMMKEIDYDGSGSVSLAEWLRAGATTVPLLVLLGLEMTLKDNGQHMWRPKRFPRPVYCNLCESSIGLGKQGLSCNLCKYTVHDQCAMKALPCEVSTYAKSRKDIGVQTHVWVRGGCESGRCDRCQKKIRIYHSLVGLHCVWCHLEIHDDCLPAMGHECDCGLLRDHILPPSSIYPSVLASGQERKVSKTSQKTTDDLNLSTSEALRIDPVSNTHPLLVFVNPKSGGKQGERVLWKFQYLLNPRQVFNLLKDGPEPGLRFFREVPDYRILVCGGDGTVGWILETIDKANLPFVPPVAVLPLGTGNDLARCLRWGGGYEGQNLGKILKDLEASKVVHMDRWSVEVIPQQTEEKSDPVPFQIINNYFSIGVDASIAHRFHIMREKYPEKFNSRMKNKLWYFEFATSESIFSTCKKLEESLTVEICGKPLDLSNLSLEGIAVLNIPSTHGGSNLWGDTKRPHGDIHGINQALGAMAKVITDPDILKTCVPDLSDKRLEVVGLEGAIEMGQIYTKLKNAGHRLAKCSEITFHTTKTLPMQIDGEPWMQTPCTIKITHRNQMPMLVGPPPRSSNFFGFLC

[9] = molecular target: T6, Tyrosine-protein phosphatase non-receptor type 1 (Homo sapiens, UniProt P18031); experiment: Inhibition of human recombinant PTP1B using OMFP as substrate incubated for 60 mins by fluorescence based analysis
T6 sequence (P18031 whole entry): T2 sequence (whole entry)

[10] = Inhibition of Helicobacter pylori recombinant IspD domain of IspDF by HTS based photometric assay
[11] = Binding affinity to Yellow fever virus 17D recombinant NS5 N-terminal capping enzyme domain expressed in Escherichia coli BL21 (DE3) assessed as inhibition constant incubated for 1 hr by high-throughput screening fluorescence polarization assay
[12] = molecular target: Serine/threonine-protein kinase PLK1 (Homo sapiens, UniProt P53350); experiment: Inhibition of GST-tagged recombinant PLK1 (unknown origin) using 5-carboxyfluorescein-KKRNRRLSVA-OH peptide as substrate incubated for 3 hrs in presence of ATP by HTS TR-FRET assay
Sequence of Serine/threonine-protein kinase PLK1 (P53350 whole entry): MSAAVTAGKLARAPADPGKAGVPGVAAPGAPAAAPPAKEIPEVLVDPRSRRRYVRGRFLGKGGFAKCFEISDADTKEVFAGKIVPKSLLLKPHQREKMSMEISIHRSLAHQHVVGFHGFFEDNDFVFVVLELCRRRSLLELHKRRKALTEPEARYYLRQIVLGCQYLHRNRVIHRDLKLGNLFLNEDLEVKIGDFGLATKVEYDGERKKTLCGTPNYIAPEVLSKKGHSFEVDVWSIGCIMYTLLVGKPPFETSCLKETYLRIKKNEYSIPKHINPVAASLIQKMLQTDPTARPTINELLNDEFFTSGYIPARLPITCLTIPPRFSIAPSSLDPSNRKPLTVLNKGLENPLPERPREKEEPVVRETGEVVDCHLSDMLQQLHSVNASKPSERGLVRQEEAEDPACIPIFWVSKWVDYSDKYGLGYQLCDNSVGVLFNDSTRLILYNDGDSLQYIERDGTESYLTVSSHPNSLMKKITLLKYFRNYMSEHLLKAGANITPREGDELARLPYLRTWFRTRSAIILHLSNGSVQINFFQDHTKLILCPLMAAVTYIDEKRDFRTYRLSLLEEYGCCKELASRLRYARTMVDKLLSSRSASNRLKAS

In the case of `CCOC(=O)C1Nc2cccc(C(=O)O)c2C2C=CCC12` (stereo not drawn), the IC50 [1] is reported as < 5 µM.

For `CN(C)C(=O)c1ccc2c(c1)C1C=CCC1C(C(=O)O)N2` (stereo not drawn), the IC50 [1] was < 5 µM.

`O=C(O)C1Nc2c(F)cccc2C2C=CCC12` (stereo not drawn) gave a fold change (FC) [2] of 0.73, a fold change (FC) [3] of 0.23 and a fold change (FC) [4] of 0.41. For the same molecule, the fold change (FC) [5] was 0.08.

`O=C(O)c1cccc2c1NC(C(=O)O)C1CC=CC21` (stereo not drawn) gave a fold change (FC) [2] of 0.73, a fold change (FC) [3] of 0.23 and a fold change (FC) [4] of 0.41. For the same molecule, the IC50 [1] was < 5 µM, the IC50 [6] was 2.5 µM and the fold change (FC) [5] was 0.08.

Molecule `O=C(O)c1ccc2c(c1)[C@@H]1C=CC[C@@H]1[C@H](C(=O)O)N2` has a Ki [7] of 70 µM.

For `CC(=O)Nc1ccc2c(c1)NC(C(=O)O)C1CC=CC21` (stereo not drawn), the IC50 [1] was < 5 µM.

With `O=C(O)C1Nc2ccc(F)c(Cl)c2C2C=CCC12` (stereo not drawn) the IC50 [1] was < 5 µM.

For `Cc1ccc2c(c1)C1C=CCC1C(C(=O)O)N2` (stereo not drawn), the IC50 [1] was < 5 µM.

With `O=C(O)c1cccc2c1C1C=CCC1C(C(=O)O)N2` (stereo not drawn) the IC50 [1] was < 5 µM.

Molecule `O=C(O)C1Nc2ccccc2C2C=CCC12` (stereo not drawn) has a fold change (FC) [2] of 0.73, a fold change (FC) [3] of 0.23 and a fold change (FC) [4] of 0.41. For the same molecule, the fold change (FC) [5] was 0.08.

`CC(=O)c1ccc2c(c1)C1C=CCC1C(C(=O)O)N2` (stereo not drawn) showed a fold change (FC) [2] of 0.73, a fold change (FC) [3] of 0.23 and a fold change (FC) [4] of 0.41. For the same molecule, the IC50 [1] was < 5 µM, the fold change (FC) [5] was 0.08 and the IC50 [8] was 6 µM.

For `O=C(O)C1Nc2ccc(Cl)cc2C2C=CCC12` (stereo not drawn), the IC50 [6] was 2.5 µM.

With `O=C(O)c1ccc2c(c1)NC(C(=O)O)C1CC=CC21` (stereo not drawn) the IC50 [1] was < 5 µM.

With `O=C(O)c1ccc2c(c1)C1C=CCC1C(C(=O)O)N2` (stereo not drawn) the fold change (FC) [2] was 0.73, the fold change (FC) [3] was 0.23 and the fold change (FC) [4] was 0.41. The IC50 [9] was 6.6 µM, the IC50 [1] was < 5 µM and the IC50 [6] was 2.5 µM. For the same molecule, the fold change (FC) [5] was 0.08.

In the case of `CNc1ccc2c(c1)C1C=CCC1C(C(=O)O)N2` (stereo not drawn), the IC50 [1] is reported as < 5 µM.

With `NC(=O)c1ccc2c(c1)C1C=CCC1C(C(=O)O)N2` (stereo not drawn) the IC50 [1] was < 5 µM.

For `CC(=O)Nc1ccc(OC(=O)c2cccc3c2NC(C(=O)O)C2CC=CC32)cc1` (stereo not drawn), the IC50 [1] was < 5 µM.

In the case of `O=C(O)C1Nc2ccc(Nc3ccccc3)cc2C2C=CCC12` (stereo not drawn), the IC50 [1] is reported as < 5 µM.

In the case of `O=C(O)C1Nc2ccc(F)cc2C2C=CCC12` (stereo not drawn), the IC50 [1] is reported as < 5 µM.

For `NC(=O)c1cccc2c1NC(C(=O)O)C1CC=CC21` (stereo not drawn), the IC50 [1] was < 5 µM.

In the case of `COc1ccc2c(c1)C1C=CCC1C(C(=O)O)N2` (stereo not drawn), the IC50 [1] is reported as < 5 µM.

`O=C(O)c1ccc([N+](=O)[O-])c2c1N[C@@H](C(=O)O)[C@H]1CC=C[C@@H]21` gave a Ki [7] of 17 µM.

With `O=C(O)C1Nc2ccc(Oc3ccccc3)cc2C2C=CCC12` (stereo not drawn) the IC50 [10] was 2.4 µM.

`O=C(O)C1Nc2c(I)cccc2C2C=CCC12` (stereo not drawn) showed a Ki [11] of 7.1 µM.

With `O=C(O)C1Nc2ccc(OC(F)(F)F)cc2C2C=CCC12` (stereo not drawn) the IC50 [1] was < 5 µM.

With `COC(=O)c1cccc2c1NC(C(=O)O)C1CC=CC21` (stereo not drawn) the IC50 [1] was < 5 µM.

With `O=C(O)C1Nc2c(O)cccc2C2C=CCC12` (stereo not drawn) the fold change (FC) [2] was 0.73, the fold change (FC) [3] was 0.23 and the fold change (FC) [4] was 0.41. The fold change (FC) [5] was 0.08.

In the case of `O=C(O)C1Nc2cc(-c3cccnc3)ccc2C2C=CCC12` (stereo not drawn), the IC50 [1] is reported as < 5 µM.

With `O=C(O)c1ccc2c(c1)[C@@H]1C=CC[C@@H]1[C@H](c1ccccn1)N2` the IC50 [12] was 17 µM.

Molecule `O=C(O)C1Nc2ccc(Br)cc2C2C=CCC12` (stereo not drawn) has a fold change (FC) [2] of 0.73, a fold change (FC) [3] of 0.23 and a fold change (FC) [4] of 0.41. For the same molecule, the fold change (FC) [5] was 0.08.

— ChEMBL document CHEMBL5390257, “Fused Tetrahydroquinolines Are Interfering with Your Assay” (J Med Chem, 2023)
